Toxic doses and inconclusive results are not listed. No stated cut-off is given here; in the data, active means T/C of 150% or more; inactive means T/C below 125%.
System: L1210 leukemia ip in BDF1 mice, survival T/C
Assay: NCI In Vivo Anticancer Drug Screen. Data for tumor model L1210 Leukemia (intraperitoneal) in B6D2F1 (BDF1) mice
Conditions: endpoint: mean survival time, higher = longer survival
Procedure, shortened: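 Mice bearing the transplanted tumor received compound or vehicle. Survival of the treated group was divided by that of the vehicle-treated control group to give the ratio.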

[1] = dose: 100.0 mg/kg/injection, schedule: Q04DX002 (ip), vehicle: Klucel (hydroxypropylcellulose) (HPC)
[2] = dose: 100.0 mg/kg/injection, schedule: Q01DX009 (ip), vehicle: saline
[3] = dose: 100.0 mg/kg/injection, schedule: Q04DX003 (ip), vehicle: saline
[4] = dose: 200.0 mg/kg/injection, schedule: Q01DX009 (ip), vehicle: saline
[5] = dose: 200.0 mg/kg/injection, schedule: Q04DX003 (ip), vehicle: saline
[6] = dose: 400.0 mg/kg/injection, schedule: Q04DX003 (ip), vehicle: saline
[7] = dose: 100.0 mg/kg/injection, schedule: Q04DX003 (ip), vehicle: Klucel (hydroxypropylcellulose) (HPC)
[8] = dose: 200.0 mg/kg/injection, schedule: Q04DX003 (ip), vehicle: Klucel (hydroxypropylcellulose) (HPC)
[9] = dose: 100.0 mg/kg/injection, schedule: Q01DX001 (ip), vehicle: Klucel (hydroxypropylcellulose) (HPC)
[10] = dose: 200.0 mg/kg/injection, schedule: Q01DX001 (ip), vehicle: Klucel (hydroxypropylcellulose) (HPC)
[11] = dose: 100.0 mg/kg/injection, schedule: Q01DX009 (ip), vehicle: saline with Tween-80
[12] = dose: 100.0 mg/kg/injection, schedule: Q04DX003 (ip), vehicle: saline with Tween-80
[13] = dose: 200.0 mg/kg/injection, schedule: Q01DX009 (ip), vehicle: saline with Tween-80
[14] = dose: 200.0 mg/kg/injection, schedule: Q04DX003 (ip), vehicle: saline with Tween-80
[15] = dose: 400.0 mg/kg/injection, schedule: Q01DX009 (ip), vehicle: saline with Tween-80

Measured: T/C

CCCCCCCCCCCC[N+](C)(C)C(C)Cc1ccccc1 (stereo not drawn)
inactive: dose: 10.0 mg/kg/injection, schedule: Q01DX001 (ip), vehicle: saline 98 % of control | dose: 20.0 mg/kg/injection, schedule: Q01DX001 (ip), vehicle: saline 98 % of control

CCCS(=O)(=O)N1CCC(C)CC1
inactive: [1] 102 % of control | dose: 200.0 mg/kg/injection, schedule: Q04DX002 (ip), vehicle: Klucel (hydroxypropylcellulose) (HPC) 97 % of control | dose: 400.0 mg/kg/injection, schedule: Q04DX002 (ip), vehicle: Klucel (hydroxypropylcellulose) (HPC) 97 % of control

CC(=O)NS(=O)(=O)c1ccc(N=Cc2ccccc2O)cc1
inactive: dose: 100.0 mg/kg/injection, schedule: Q01DX009 (ip), vehicle: Klucel (hydroxypropylcellulose) (HPC) 101 % of control | dose: 200.0 mg/kg/injection, schedule: Q01DX009 (ip), vehicle: Klucel (hydroxypropylcellulose) (HPC) 94 % of control | dose: 400.0 mg/kg/injection, schedule: Q01DX009 (ip), vehicle: Klucel (hydroxypropylcellulose) (HPC) 100 % of control

N#CCCN1CCOCC1
inactive: [2] 93 % of control | [3] 97 % of control | [4] 97 % of control | [5] 95 % of control | dose: 400.0 mg/kg/injection, schedule: Q01DX009 (ip), vehicle: saline 95 % of control | [6] 105 % of control

COc1cccc2c1N=c1c(Cl)c3c(c(Cl)c1O2)=Nc1c(OC)cccc1O3
inactive: [7] 106 % of control | [8] 102 % of control | dose: 400.0 mg/kg/injection, schedule: Q04DX003 (ip), vehicle: Klucel (hydroxypropylcellulose) (HPC) 113 % of control

Cc1ccc(S(=O)(=O)NC(=O)NC2CCCCC2)cc1
inactive: [3] 88 % of control | [5] 93 % of control | [6] 104 % of control

CC1C(c2ccccc2)N1C(=O)Nc1ccccc1 (stereo not drawn)
inactive: [9] 93 % of control | [10] 96 % of control | dose: 400.0 mg/kg/injection, schedule: Q01DX001 (ip), vehicle: Klucel (hydroxypropylcellulose) (HPC) 98 % of control

C/C=C/CC(C/C=C/C)C1CC[N-]CC1.C/C=C/CC(C/C=C/C)C1CC[N-]CC1.[Cl][Pt+2]([Cl])([Cl])[Cl]
inactive: dose: 3.13 mg/kg/injection, schedule: Q01DX009 (ip), vehicle: other 94 % of control | dose: 6.25 mg/kg/injection, schedule: Q01DX009 (ip), vehicle: other 87 % of control | dose: 12.5 mg/kg/injection, schedule: Q01DX009 (ip), vehicle: other 105 % of control

COc1cc(Cn2cccc2/C=N/NC(N)=S)cc(OC)c1
inactive: dose: 25.0 mg/kg/injection, schedule: Q04DX002 (ip), vehicle: Klucel (hydroxypropylcellulose) (HPC) 105 % of control | dose: 50.0 mg/kg/injection, schedule: Q04DX002 (ip), vehicle: Klucel (hydroxypropylcellulose) (HPC) 111 % of control | [1] 111 % of control

COc1cccc(/C=C2/COC/C(=C\c3cccc(OC)c3OC)C2=O)c1OC
inactive: [2] 91 % of control | [4] 97 % of control

Cn1c(=O)n2n(c1=O)C1C=CC2C2C(Br)C(Br)C21 (stereo not drawn)
inactive: [11] 97 % of control | [12] 102 % of control | [13] 101 % of control | [14] 94 % of control | [15] 103 % of control | dose: 400.0 mg/kg/injection, schedule: Q04DX003 (ip), vehicle: saline with Tween-80 105 % of control

CS(=O)Cc1cccc2ccccc12 (stereo not drawn)
inactive: dose: 50.0 mg/kg/injection, schedule: Q04DX003 (ip), vehicle: Klucel (hydroxypropylcellulose) (HPC) 117 % of control | [9] 98 % of control | [7] 104 % of control | [10] 116 % of control | [8] 96 % of control

CCO/C=C/c1ccccc1
inactive: [11] 101 % of control | [12] 93 % of control | [13] 96 % of control | [14] 98 % of control | [15] 90 % of control

CC1(C)N=C(N)N=C(N)N1c1ccc(CCCCc2cccc(S(=O)(=O)F)c2)c(Cl)c1
inactive: dose: 6.25 mg/kg/injection, schedule: Q01DX009 (ip), vehicle: saline with Tween-80 106 % of control | dose: 12.5 mg/kg/injection, schedule: Q01DX009 (ip), vehicle: saline with Tween-80 104 % of control | dose: 25.0 mg/kg/injection, schedule: Q01DX009 (ip), vehicle: saline with Tween-80 113 % of control

COc1cc(/C=N/NC(C)=O)ccc1O
inactive: dose: 50.0 mg/kg/injection, schedule: Q01DX009 (ip), vehicle: saline with Tween-80 97 % of control | [11] 94 % of control | [13] 110 % of control

Source: PubChem BioAssay AID248 (DTP/NCI, 2004)
